According to patent US9868695B2 (priority 2014, dated 2018):
Like-named read-outs stand apart in the source and are kept apart here.

Assay: Thermodynamic equilibrium solubility
Format: physicochemical
Conditions: 25 °C, thermodynamic from solid, 25±1° C.
Description: The compounds were first dissolved in methanol to prepare stock solutions (100 and 1000 μg/mL). Different concentrations of stock solutions were pipetted into the 96-well plates and the solvent was evaporated to ensure that solid drug was present in the beginning of the experiment. Thereafter, 200 μl of the dissolution medium was added to the wells and 96-well plate was shaken horizontally at 300 rpm (Eppendorf Thermoblock Adapter, North America) for 4 h at room temperature (25±1° C.). The plates were kept overnight for equilibration of drug in medium. Later, the plates were centrifuged at 3000 rpm for 15 min (Jouan centrifuge BR4i). Supernatant (50 μl) was pipetted into UV 96-well plates (Corning® 96 Well Clear Flat Bottom UV-Transparent Microplate) for analyses with plate reader (SpectraMax Plus384) at λmax of 350 nm. The analyses were performed in triplicate for each compound. The solubility curve of concentration (μg/mL) vs absorbance was plotted to find out saturation point and the corresponding concentration was noted.

Measured: solubility

COc1cc2c(c(OC)c1OC)-c1ccc(Nc3ccc(Cl)c(C(F)(F)F)c3)c(=O)cc1[C@@H](NC(C)=O)CC2 [Compound 1g, N-[(7S)-1,2,3-Trimethoxy-9-oxo-10-[3-(trifluoromethyl)-4-chloro-phenylamino]-5,6,7,9-tetrahydrobenzo[a]heptalen-7-yl]acetamide]
> 1500 µg/mL: aqueous buffer, phosphate buffer saline, read-out: Solubility, PBS | fassgf or other biorelevant, simulated intestinal fluid, read-out: Solubility, SIF | simulated gastric fluid, read-out: Solubility, SGF | water, read-out: Solubility, Water
